# Test results from patent publication US11013740B2, “Histone deacetylase 6 selective inhibitors for the treatment of cisplatin-induced peripheral neuropathy” (REGENACY PHARMACEUTICALS, LLC, priority 2015, dated 2021).
# Tested on: cisplatin-induced mechanical hyperalgesia
# Test: Von Frey test for mechanical hyperalgesia in cisplatin-treated mice
# Format: in vivo
# Conditions: for effect on existing cisplatin-induced mechanical hyperalgesia: 7 daily doses starting 3 days after last cisplatin dose
# Method: Adult male C57/Bl6J mice received cisplatin intraperitoneally (i.p.) (2.3 mg/kg) daily for five days, followed by five days rest and a second round of five days of cisplatin treatment. Three days after the last dose of cisplatin, mice received the HDAC6 inhibitor, compound 001, a compound of Formula (I), i.p. for seven to fourteen days at 3 mg/kg or 10 mg/kg.
# To quantify signs of cisplatin-induced pain, the von Frey test was used (see below) which measures the decrease in threshold to induce a withdrawal response to a mechanical stimulus (hyperalgesia, one of the characteristics of CIPN). To assess cisplatin-induced numbness, the adhesive removal test (ART) was used. The time it took for the mouse to have a behavioral response to the patch (i.e. shaking or attempted removal) was recorded as a measure of sensory deficit or numbness. To determine if behavioral changes were due to altered general activity or motor function, the locomotor activity (LMA) test and the rotarod test was used. For LMA mice were placed in an open-field testing cage and movement was measured for 5 minutes. For the rotarod, mice were trained for two days and then tested on the rotarod (with increasing speeds) for 5 minutes. Time on the rotarod was recorded.
# Allodynic response to tactile stimulation is assessed using the Von Frey apparatus (Touch Test®).
# The animal is placed in an enclosure and positioned on a metal mesh surface, but allowed to move freely. The animals' cabins are covered with red cellophane to diminish environmental disturbances. The test begins after a cessation of exploratory behavior. The set of Von Frey monofilaments provide an approximate logarithmic scale of actual force and a linear scale of perceived intensity.
# The operating principle: when the tip of a fiber of given length and diameter is pressed against the skin at right angles, the force of application increases as long as the researcher continues to advance the probe until the fiber bends. After the fiber bends, the probe continues to advance, causing the fiber to bend more, but without additional force being applied.
# The Touch Test™ Sensory Evaluator can be used on the plantar surfaces of the rat's foot. The animal indicates sensation by pulling back its paw. The minimal force needed to elevate the withdrawal reflex is considered/designated as the value of reference. In order to achieve paw withdrawal, the pressure applied is sometimes greater than 60 g, often requiring the researcher to apply enough pressure with the Von Frey filament to actually lift the paw of the naive animal. Decreases in force needed to induce withdrawal are indicative of hyperalgesia, as the force applied is a non-painful stimulus under normal conditions.
# Cisplatin (TEVA Pharmaceuticals, North Wales, Pa.) was diluted in sterile saline and administered intraperitoneally (i.p.) at a dose of 2.3 mg/kg daily for 5 days, followed by 5 days of rest, and a second round of 5 doses for a total cumulative dose of 23 mg/kg cisplatin. It was shown that this dosing schedule induces mechanical hyperalgesia in mice (Qi-Liang Mao-Ying A K, et al. The anti-diabetic drug metformin protects against chemotherapy-induced peripheral neuropathy in a mouse model. Clinical Cancer Research. 2014; Krukowski K, et al. Prevention of chemotherapy-induced peripheral neuropathy by the small-molecule inhibitor pifithrin-mu. Pain. 2015; 156(11):2184-92). HDAC6 inhibitor, compound 001, (Acetylon Pharmaceuticals, Boston, Mass.) was dissolved in 20% 2-hydroxypropyl-β-cyclodextrin+0.5% hydroxypropyl methylcellulose (Sigma-Aldrich, St. Louis, Mo.) in water and administered i.p. at a dose of 10 mg/kg or 3 mg/kg. […]
smiles,measurement,setting,value
O=C(NO)c1cnc(NC2(c3ccccc3)CCC(F)(F)CC2)nc1 [compound 001],effect on existing cisplatin-induced mechanical hyperalgesia,3 mg/kg i.p.,did not
same,effect of prolonged treatment on mechanical hyperalgesia,10 mg/kg for two consecutive weeks starting 3 days after last cisplatin dose,complete and sustained recovery from mechanical hyperalgesia
same,duration of beneficial effect of prolonged regimen,"10 mg/kg for two consecutive weeks, followed to experiment termination",maintained until at least one month after the last dose
same,effect on existing cisplatin-induced mechanical hyperalgesia,10 mg/kg i.p.,effectively relieved cisplatin-induced mechanical hyperalgesia
same,time after first dose at which effect on mechanical allodynia was first detected,"10 mg/kg i.p., cisplatin-treated mice",24 h
same,"mechanical sensitivity, compound alone","10 mg/kg, without cisplatin",did not alter mechanical sensitivity
same,time after last dose until which beneficial effect on mechanical hyperalgesia was maintained,7 daily doses of 10 mg/kg,4 days
same,prevention of development of mechanical hyperalgesia,administered i.p. one hour prior to each dose of cisplatin,prevented the development of mechanical hyperalgesia
same,effect of second round of treatment on mechanical hyperalgesia,"second round of 7 daily injections, 10 mg/kg, after 7 days rest",transiently reversed cisplatin-induced mechanical hyperalgesia
